# According to paper PMC6479946 (Molecules, 2019):
# Where “and” joins values, the source holds several entries; their conditions need not be identical. Equal values may be shown once. Read-outs that look alike come from different tables or passages of the source.
# Experiments:
# [1] = in vivo; details: for AUC(0-inf) / Tmax / AUC(0-t) / CL/F / Cmax / k el / MRT: male, Sprague-Dawley, po, 5 mg/kg; for AUC(0-inf): AUC(0-∞) of MEM; for AUC(0-inf) / Tmax / AUC(0-t) / CL/F / Cmax / k el / MRT / Ka of MEM / T1/2a of MEM / T1/2d of MEM / Vd of MEM: n = 8, mean ± SD; for Tmax: Tmax of MEM; for AUC(0-t): AUC(0-t) of MEM; for CL/F: CL/F of MEM; for Cmax: Cmax of MEM; for k el: Ke of MEM; for MRT: MRT of MEM
# Description: The analytes were separated on an ACQUITY UPLC BEH C18 column (2.1 mm × 50 mm, 1.7 μm, Waters, Milford, USA). […] The flow rate was 0.3 mL/min. The column and sample-tray temperature were kept at 40 °C and 4 °C, respectively. The injection volume was 5.0 μL using a partial loop with needle over fill mode.
# The compound dependent parameters used for analysis were summarized in Supplementary materials Table S1.
# A rapid and convenient precipitation method was used to prepare the plasma samples. A 100 μL aliquot of plasma sample was spiked with 100 μL of IS solution and 300 μL of methanol in a 1.5 mL centrifuge tube; subsequently, the mixtures were vortex-mixed for 30.0 s and then centrifuged at 1.5 × 10^4× g for 10 min at 4 °C. A 100 μL aliquot of supernatant was combined with 25.0 μL of 0.1% formic acid water in a clean centrifuge tube and then vortex-mixed for 30 s. A 5.0 μL aliquot of mixture was injected into the UPLC-MS/MS system for analysis.
# Fifty-six pathogen-free male adult rats were randomly divided into seven groups with eight rats in each group for pharmacokinetic study. […] One group was intragastrically administered with MEM hydrochloride 5.0 mg/kg dissolved in ultrapure water, namely, MEM group. […] The blood samples were immediately centrifuged at 4.0 × 10^3× g at […] for 10 min, and 100 μL of the supernatant plasma was transferred into another new 1.5 mL centrifuge tube and stored at −20 °C until UPLC-MS/MS analysis.
# All standard curves and quantitative data were processed by Agilent Mass Hunter Quantitative Analysis Workstation Software. […] All the pharmacokinetic parameters were processed using the non-compartmental pharmacokinetics data analysis software program PK solutions 2.0^TM (Summit Research Services, USA). […] The AUC(0-t) was obtained by the linear/logarithmic trapezoidal rule, and the area under the plasma concentration versus time curve from zero to infinity (AUC(0-∞)) was calculated by means of the trapezoidal rule with extrapolation to infinity with a terminal elimination rate constant. The Pearson correlation coefficient analysis was processed by IBM SPSS Statistics Version 21. A statistical analysis was performed using analysis of variance with α = 0.05 as the minimal level of significance.
# [2] = rats, cited from earlier work
# [3] = test system: CYP2D6; details: rat liver microsomes; cited from earlier work
# [4] = test system: CYP1A2; details: rat liver microsomes; cited from earlier work
# [5] = test system: CYP3A4; details: rat liver microsomes; cited from earlier work
# [6] = rat, plasma, rat plasma, oral MEM 5.0 mg/kg + HAR 20.0 mg/kg (HAR-L + MEM)
# [7] = rat, plasma, rat plasma, oral MEM 5.0 mg/kg + HAR 40.0 mg/kg (HAR-M + MEM)
# [8] = rat, plasma, rat plasma, oral MEM 5.0 mg/kg + HAR 80.0 mg/kg (HAR-H + MEM)
# [9] = rat, plasma, rat plasma, oral MEM 5.0 mg/kg alone (MEM group)
# [10] = rat plasma, oral MEM 5.0 mg/kg + HAR 20.0 mg/kg (HAR-L + MEM)
# [11] = rat plasma, oral MEM 5.0 mg/kg + HAR 40.0 mg/kg (HAR-M + MEM)
# [12] = rat plasma, oral MEM 5.0 mg/kg + HAR 80.0 mg/kg (HAR-H + MEM)
# [13] = rat plasma, oral MEM 5.0 mg/kg alone (MEM group)
smiles,measurement,setting,value
"CC12CC3CC(C)(C1)CC(N)(C3)C2 [MEM, 1-amino-3,5-dimethyladamantane, reference compound]",AUC(0-inf),"[1]; rat, in vivo, rat plasma, oral MEM 5.0 mg/kg + HAR 80.0 mg/kg (HAR-H + MEM)",781 ± 285 ng·h/mL
same,Tmax,"[1]; rat, in vivo, rat plasma, oral MEM 5.0 mg/kg + HAR 20.0 mg/kg (HAR-L + MEM)",3.13 ± 2.23 h
same,AUC(0-t),[1]; [6],392 ± 55.2 ng·h/mL
same,AUC(0-t),[1]; [7],472 ± 105 ng·h/mL
same,AUC(0-t),[1]; [8],603 ± 149 ng·h/mL
same,AUC(0-t),[1]; [9],349 ± 46.2 ng·h/mL
same,AUC(0-inf),[1]; [6],477 ± 75.1 ng·h/mL
same,AUC(0-inf),[1]; [7],547 ± 142 ng·h/mL
same,AUC(0-inf),[1]; [9],367 ± 4.87 ng·h/mL
same,CL/F,[1]; [6],178 mL/min/kg
same,CL/F,[1]; [7],162 mL/min/kg
same,CL/F,[1]; [8],118 mL/min/kg
same,CL/F,[1]; [9],230 mL/min/kg
same,Cmax,[1]; [6],50.5 ± 7.59 ng/mL
same,Cmax,[1]; [7],74.9 ± 15 ng/mL
same,Cmax,[1]; [8],74.3 ± 26.6 ng/mL
same,Cmax,[1]; [9],84.8 ± 25.8 ng/mL
same,k el,[1]; [6],5.31e-05 s⁻¹
same,k el,[1]; [7],5.97e-05 s⁻¹
same,k el,[1]; [8],5.64e-05 s⁻¹
same,k el,[1]; [9],7.25e-05 s⁻¹
same,MRT,[1]; [6],7.45 ± 1.51 h
same,MRT,[1]; [7],6.25 ± 1.25 h
same,MRT,[1]; [8],8.5 ± 3.74 h
same,MRT,[1]; [9],4.04 ± 0.808 h
same,Tmax,[1]; [7],1.56 ± 1.11 h
same,Tmax,[1]; [8],4 ± 1.85 h
same,Tmax,[1]; [9],1.31 ± 0.579 h
same,Ka of MEM,[1]; [10],0.595 ± 0.315 h⁻¹
same,T1/2a of MEM,[1]; [10],1.37 ± 0.468 h
same,T1/2d of MEM,[1]; [10],2.42 ± 1.06 h
same,Vd of MEM,[1]; [10],60.1 ± 19.3 L/kg
same,Ka of MEM,[1]; [11],1.08 ± 1.05 h⁻¹
same,T1/2a of MEM,[1]; [11],0.945 ± 0.398 h
same,T1/2d of MEM,[1]; [11],1.67 ± 0.560 h
same,Vd of MEM,[1]; [11],48.4 ± 16.4 L/kg
same,Ka of MEM,[1]; [12],0.481 ± 0.203 h⁻¹
same,T1/2a of MEM,[1]; [12],1.61 ± 0.459 ^bb h
same,T1/2d of MEM,[1]; [12],1.61 ± 0.529 h
same,Vd of MEM,[1]; [12],38.3 ± 13.1 L/kg
same,MEM in plasma within 24.0 h after co-administrations,"[1]; rat plasma, oral MEM 5.0 mg/kg + HAR 20.0, 40.0 or 80.0 mg/kg",a small amount of MEM could still be detected
same,MEM in plasma after 24 h of administration,[1]; [13],no MEM was detected
same,Ka of MEM,[1]; [13],1.73 ± 0.848 h⁻¹
same,T1/2a of MEM,[1]; [13],0.482 ± 0.202 h
same,T1/2d of MEM,[1]; [13],3.08 ± 2.37 h
same,Vd of MEM,[1]; [13],53.8 ± 10.6 L/kg
same,T1/2e of MEM,"[1]; rat, in vivo",2.69 ± 0.306 h and 3.96 ± 1.44 h and 3.62 ± 1.42 h and 4.27 ± 3.03 h
same,T1/2e of MEM,[2]; administered orally with 1.22 mg eq./mL MEM,2.23 h
same,T1/2e of MEM,[2]; administered orally with 2.00 mg eq./mL MEM,3.92 h
same,inhibition of CYP2D6,[3],strong inhibitor
same,inhibition of CYP1A2,[4],weak inhibitor
same,inhibition of CYP3A4,[5],weak inhibitor
